Assay results reported in US6818663B2, “Diaminothiazoles” (Hoffmann-La Roches, priority 2002, dated 2004).

Tests used:
[1] = test system: HCT116, a colorectal carcinoma cell line; assay: Tetrazolium dye proliferation assay (MTT assay); format: cell-based; conditions: Homo sapiens, HCT-116, HCT116 cells, inhibition of cell proliferation
Experimental: Proliferation was evaluated by the tetrazolium dye assay according to the procedure of Denizot and Lang (Denizot, F. and Lang, R. J Immunol Methods 1986, 89, 271-277). The cell line used was HCT116, a colorectal carcinoma cell line obtained from the American Type Cell Culture Collection (ATCC; Rockville, Md.). The cells were grown in McCoy's 5A medium supplemented with 10% FCS and L-glutamine.
Cells were plated at the appropriate seeding density to give logarithmic growth over the course of the assay in a 96-well tissue culture plate. Plates were incubated overnight at 37° C. in a humidified incubator with 5% CO2. The next day, test compounds were serially diluted to four times the final concentration in the appropriate medium containing 1.2% DMSO. One-fourth final volume of each dilution was added in duplicate to the plates containing cells. The same volume of 1.2% DMSO in medium was added to a row of “control wells” such that the final concentration of DMSO in each well was 0.3%. Wells to which no cells were added served as the “blank.” Wells to which no inhibitor was added served as “no inhibitor control.” The plates were) returned to the incubator, and at set time points (determined by their growth curves) plates were analyzed as described below.
3-(4,5-dimethylthiazole-2-yl)-2,5-diphenyl-2H-tetrazolium bromide (thiazolyl blue; MTT; Sigma) was added to each well to yield a final concentration of 1 mg/ml. Plates were returned to the incubator for 2.5-3 hours at 37° C. The MTT-containing medium was removed and the resulting formazan metabolite was solubilized in 100% ethanol with shaking for 15 minutes at room temperature. Absorbance readings were taken in a microtiter plate reader (Dynatech and Molecular Devices plate readers were used interchangeably) at a wavelength of 570 nm with a 650 nm reference. Percent inhibition (% INH) is calculated by subtracting the absorbance of the blank well from all wells, then subtracting the ratio of the average absorbance of each test duplicate (SAVE) by the average of the controls (CAVE) from 1.00. The final number is then multiplied by 100 (% INH=(1.00−SAVE/CAVE)×100). The concentration at which 50% inhibition of cell proliferation is obtained (the IC50) is determined from the linear regression of a plot of the logarithm of the concentration versus percent inhibition.

[2] = molecular target: human cyclin D1-CDK4 (Homo sapiens, UniProt P11802); assay: FlashPlate kinase assay, cyclin D1-CDK4, Rb substrate; format: biochemical; conditions: recombinant cyclin D1-CDK4, Rb phosphorylation, 1 μM ATP
Experimental: (§1) To determine inhibition of Cdk4, Cdk2 and Cdk1 activity, kinase assays were conducted using FlashPlate™ assays (NEN™-Life Science Products). FlashPlate assays were performed using recombinant human cyclin B-CDK1, human cyclin E-CDK2 or human cyclin D1-CDK4 complexes. GST-cyclinE (GST-cycE), CDK2, GST-cyclinB (GST-cycB), CDK1, GST-CDK4 and cyclin D1 (cycD1) cDNA clones in baculovirus vectors were provided by Dr. W. Harper at the Baylor College of Medicine, Houston, Tex. Proteins were co-expressed in High Five™ insect cells and the complex was purified on glutathione Sepharose resin (Pharmacia, Piscataway, N.J.) as previously described (Harper, J. W. et al. Cell 1993, 75, 805-816). A 6×-Histidine tagged truncated form of retinoblastoma (Rb) protein (amino acid 386-928) was used as the substrate for the cycD1-CDK4, cycB-CDK1 and the cycE-CDK2 assays (the expression plasmid was provided by Dr. Veronica Sullivan, Department of Molecular Virology, Roche Research Centre, Welwyn Garden City, United Kingdom). The Rb protein is a natural substrate for phosphorylation by CDK4, CDK2 and CDK1 (see Herwig and Strauss Eur. J. Biochem. Vol. 246 (1997) pp. 581-601 and the references cited therein).
(§2) The expression of the 62 Kd protein was under the control of an IPTG inducible promoter in an M15 E. coli strain. Cells were lysed by sonication and purification was carried out by binding lysates at pH 8.0 to a Ni-chelated agarose column pretreated with 1 mM imidazole. The resin was then washed several times with incrementally decreasing pH buffers to pH 6.0, and eluted with 500 mM imidazole. Eluted protein was dialysed against 20 mM HEPES pH 7.5, 30% glycerol, 200 mM NaCl, and 1 mM DTT. Purified Rb fusion protein stocks were quantitated for protein concentration, aliquoted, and stored at −70° C.
(§3) For all three kinase assays reported herein, 96-well FlashPlates were coated with Rb protein at 10 μg/ml, using 100 μl per well. Plates were incubated at 4° C. overnight or at room temperature for 3 hours on a shaker. To control for nonspecific phosphorylation, one row of wells was coated with 100 μl/well coating buffer (20 mM HEPES, 0.2 M NaCl). Plates were then washed twice with wash buffer (0.01% Tween 20 in phosphate-buffered saline). Compounds to be tested (“test compounds”) were added to the wells at 5×final concentration. Reactions were initiated by immediate addition of 40 μl reaction mix (25 mM HEPES, 20 mM MgCl2, 0.002% Tween 20, 2 mM DTT, 1 μM ATP, 4 nM ^33P-ATP) and a sufficient amount of enzyme to give counts that were at least 10-fold above background. Plates were incubated at room temperature on a shaker for 30 minutes. Plates were washed four times with the wash buffer, sealed, and counted on the TopCount scintillation counter (Packard Instrument Co., Downers Grove, Ill.]. The percent inhibition of Rb phosphorylation, which is a measure of the inhibition of CDK activity, was determined according to the following formula: [formula]
(§4) where “test compound” refers to the average counts per minute of the test duplicates, “nonspecific” refers to the average counts per minute when no CyclinD/Cdk4, etc., was added, and “total” refers to the average counts per minute when no compound was added. The IC50 value is the concentration of test compound that reduces by 50% the protein-kinase induced incorporation of the radiolabel under the test conditions described.

[3] = molecular target: human cyclin B-CDK1 (Homo sapiens, UniProt P06493); assay: FlashPlate kinase assay, cyclin B-CDK1, Rb substrate; format: biochemical; conditions: recombinant cyclin B-CDK1, Rb phosphorylation, 1 μM ATP
Experimental: as §1, §2, §3, §4

[4] = molecular target: human cyclin E-CDK2 (Homo sapiens, UniProt P24941); assay: FlashPlate kinase assay, cyclin E-CDK2, Rb substrate; format: biochemical; conditions: recombinant cyclin E-CDK2, Rb phosphorylation, 1 μM ATP
Experimental: as §1, §2, §3, §4

human cyclin D1-CDK4, sequence (P11802 whole entry): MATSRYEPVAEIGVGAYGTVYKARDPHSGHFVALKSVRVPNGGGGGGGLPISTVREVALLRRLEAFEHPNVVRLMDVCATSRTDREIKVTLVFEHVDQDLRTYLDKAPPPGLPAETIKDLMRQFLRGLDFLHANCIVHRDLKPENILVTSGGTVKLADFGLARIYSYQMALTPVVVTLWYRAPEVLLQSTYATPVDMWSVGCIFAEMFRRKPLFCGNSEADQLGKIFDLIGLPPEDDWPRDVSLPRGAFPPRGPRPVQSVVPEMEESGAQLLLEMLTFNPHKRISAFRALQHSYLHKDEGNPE
human cyclin D1-CDK4, sequence (P24385 whole entry partner): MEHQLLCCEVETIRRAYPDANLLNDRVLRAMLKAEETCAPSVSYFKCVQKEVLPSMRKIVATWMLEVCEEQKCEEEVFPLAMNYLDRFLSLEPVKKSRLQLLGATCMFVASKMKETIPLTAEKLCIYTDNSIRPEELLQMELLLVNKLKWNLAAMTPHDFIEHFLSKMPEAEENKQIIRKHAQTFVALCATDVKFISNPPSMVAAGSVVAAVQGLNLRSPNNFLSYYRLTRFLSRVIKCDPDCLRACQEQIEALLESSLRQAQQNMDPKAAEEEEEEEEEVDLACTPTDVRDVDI
human cyclin B-CDK1, sequence (P06493 whole entry): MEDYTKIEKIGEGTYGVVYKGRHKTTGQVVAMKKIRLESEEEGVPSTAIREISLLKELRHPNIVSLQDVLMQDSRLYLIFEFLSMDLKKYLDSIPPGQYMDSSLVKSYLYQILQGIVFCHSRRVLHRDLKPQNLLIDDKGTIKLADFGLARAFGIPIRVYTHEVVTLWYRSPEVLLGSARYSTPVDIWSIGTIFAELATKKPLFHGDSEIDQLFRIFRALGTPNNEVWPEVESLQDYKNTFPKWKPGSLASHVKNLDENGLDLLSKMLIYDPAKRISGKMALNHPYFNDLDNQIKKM
human cyclin B-CDK1, sequence (P14635 whole entry partner): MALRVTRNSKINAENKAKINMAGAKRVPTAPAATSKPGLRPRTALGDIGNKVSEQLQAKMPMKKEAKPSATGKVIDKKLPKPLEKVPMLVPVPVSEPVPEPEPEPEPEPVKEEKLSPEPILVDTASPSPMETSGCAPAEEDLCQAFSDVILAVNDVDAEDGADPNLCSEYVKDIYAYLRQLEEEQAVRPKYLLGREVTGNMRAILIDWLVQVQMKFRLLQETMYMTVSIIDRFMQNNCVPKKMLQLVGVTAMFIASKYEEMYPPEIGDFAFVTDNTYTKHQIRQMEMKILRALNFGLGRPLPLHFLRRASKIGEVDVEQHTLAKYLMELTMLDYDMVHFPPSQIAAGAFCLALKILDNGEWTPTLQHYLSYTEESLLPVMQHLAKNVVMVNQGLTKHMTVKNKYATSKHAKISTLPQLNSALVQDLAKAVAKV

IC50 [1] | IC50 [2] | IC50 [3] | IC50 [4] | SMILES
1720 nM | 19 nM | 1840 nM | 2280 nM | CCN1CCCC(Oc2ccc(Nc3nc(N)c(C(=O)c4cccc(C5CC5)c4)s3)cc2)C1 (stereo not drawn) [Example 80, [4-Amino-2-[4-(1-ethyl-piperidin-3-yloxy)-phenylamino]-thiazol-5-yl]-(3-cyclopropyl-phenyl)-methanone]
880 nM | 43 nM | 731 nM | 1230 nM | CCNCCOc1ccc(Nc2nc(N)c(C(=O)c3cccc(C)c3)s2)cc1 [Example 100, [4-Amino-2-(4-(2-ethylamino-ethoxy)-phenylamino]-thiazol-5-yl]-m-tolyl-methanone; Compound With Acetic Acid]
614 nM | 53 nM | 1060 nM | 2930 nM | Cc1cccc(C(=O)c2sc(Nc3ccc(OCCN4CCCC4)cc3)nc2N)c1 [Example 51, [4-Amino-2-[4-(2-pyrrolidin-1-yl-ethoxy)-phenylamino]-thiazol-5-yl]-m-tolyl-methanone]
1510 nM | 41 nM | 806 nM | 1080 nM | CCN1CCCC(Oc2ccc(Nc3nc(N)c(C(=O)c4cccc(C)c4)s3)cc2)C1 (stereo not drawn) [Example 78, [4-Amino-2-[4-(1-ethyl-piperidin-3-yloxy)-phenylamino]-thiazol-5-yl]-m-tolyl-methanone]
5090 nM | 45 nM | 1760 nM |  | CC(C)NCCOc1ccc(Nc2nc(N)c(C(=O)c3ccc4c(c3)OCCO4)s2)cc1 [Example 136, [4-Amino-2-[4-(2-isopropylamino-ethoxy)-phenylamino]thiazol-5-yl]-(2,3-dihydro-benzo[1,4]dioxin-6-yl)-methanone]
4630 nM | 63 nM |  |  | CC1COc2ccc(C(=O)c3sc(Nc4ccc(OCCN5CCCC5)cc4)nc3N)cc21 (stereo not drawn) [Example 140, [4-Amino-2-[4-(2-pyrrolidin-1-yl-ethoxy)-phenylamino]-thiazol-5-yl]-(3-methyl-2,3-dihydro-benzofuran-5-yl)-methanone]
3690 nM | 63 nM | 3890 nM |  | CCc1cc(C(=O)c2sc(Nc3ccc(OCCN4CCCC4)cc3)nc2N)ccc1F [Example 76, [4-Amino-2-[4-(2-pyrrolidin-1-yl-ethoxy)-phenylamino]-thiazol-5-yl]-(3-ethyl-4-fluoro-phenyl)-methanone]
4240 nM | 55 nM |  | 6400 nM | CCc1cc(C(=O)c2sc(Nc3ccc(OC4CCCN(CC)C4)cc3)nc2N)ccc1F (stereo not drawn) [Example 81, [4-Amino-2-[4-(1-ethyl-piperidin-3-yloxy)-phenylamino]-thiazol-5-yl]-(3-ethyl-4-fluoro-phenyl)-methanone]
3700 nM | 43 nM | 884 nM |  | CN(C)CCOc1ccc(Nc2nc(N)c(C(=O)c3ccc4c(c3)OCCO4)s2)cc1 [Example 58, [4-Amino-2-[4-(2-dimethylamino-ethoxy)-phenylamino]-thiazol-5-yl]-(2,3-dihydro-benzo[1,4]dioxin-6-yl)-methanone]
7290 nM | 44 nM | 1930 nM |  | CCNCCOc1ccc(Nc2nc(N)c(C(=O)c3ccc4c(c3)OCCO4)s2)cc1 [Example 134, [4-Amino-2-[4-(2-ethylamino-ethoxy)-phenylamino]-thiazol-5-yl]-(2,3-dihydro-benzo[1,4]dioxin-6-yl)-methanone]
 | 92 nM | 869 nM | 5130 nM | Cc1ccc(C(=O)c2sc(Nc3ccc(OC[C@@H](C)N(C)C)cc3)nc2N)cc1F [Example 74, (R)-[4-Amino-2-[4-(2-dimethylamino-propoxy)-phenylamino]-thiazol-5-yl]-(3-fluoro-4-methyl-phenyl)-methanone]
 | 65 nM | 416 nM | 1140 nM | Nc1nc(Nc2ccc(OC3CCCNC3)cc2)sc1C(=O)c1cccc(F)c1 (stereo not drawn) [Example 46, [4-Amino-2-[4-(piperidin-3-yloxy)-phenylamino]-thiazol-5-yl]-(3-fluoro-phenyl)-methanone]
4400 nM | 80 nM | 7800 nM |  | CCc1cc(C(=O)c2sc(Nc3ccc(OC[C@@H](C)N(C)C)cc3)nc2N)ccc1F [Example 77, (R)-[4-Amino-2-[4-(2-dimethylamino-propoxy)-phenylamino]-thiazol-5-yl]-(3-ethyl-4-fluoro-phenyl)-methanone]
 | 74 nM | 451 nM | 957 nM | CCN1CCCC(Oc2ccc(Nc3nc(N)c(C(=O)c4ccc(C)c(F)c4)s3)cc2)C1 (stereo not drawn) [Example 87, [4-Amino-2-[4-(1-ethyl-piperidin-3-yloxy)-phenylamino]-thiazol-5-yl]-(3-fluoro-4-methyl-phenyl)-methanone]
 | 92 nM | 613 nM | 850 nM | CN(C)C(C)(C)COc1ccc(Nc2nc(N)c(C(=O)c3cccc(F)c3)s2)cc1 [Example 39, [4-Amino-2-[4-(2-dimethylamino-2-methyl-propoxy)-phenylamino]-thiazol-5-yl]-(3-fluoro-phenyl)-methanone]
 | 34 nM | 523 nM | 1230 nM | CCc1cccc(C(=O)c2sc(Nc3ccc(OC4CCCNC4)cc3)nc2N)c1 (stereo not drawn) [Example 98, [4-Amino-2-[4-(piperidin-3-yloxy)-phenylamino]-thiazol-5-yl]-(3-ethyl-phenyl)-methanone]
 | 86 nM | 682 nM | 2040 nM | Cc1ccc(C(=O)c2sc(Nc3ccc(OC4CCNC4)cc3)nc2N)cc1F (stereo not drawn) [Example 94, [4-Amino-2-[4-(pyrrolidin-3-yloxy)-phenylamino]-thiazol-5-yl]-(3-fluoro-4-methyl-phenyl)-methanone; Compound With Acetic Acid]
 | 71 nM | 1020 nM | 1500 nM | CCN1CCCC(Oc2ccc(Nc3nc(N)c(C(=O)c4ccc(O)c(F)c4)s3)cc2)C1 (stereo not drawn) [Example 82, [4-Amino-2-[4-(1-ethyl-piperidin-3-yloxy)-phenylamino]-thiazol-5-yl]-(3-fluoro-4-hydroxy-phenyl)-methanone]
